Measurements: US9388202B2, “Luminescent probes for biological labeling and imaging, method for preparing same” (CENTRE NATIONAL DE LA RECHERCHE SCIENTIFIQUE, priority 2011, dated 2016)
Values joined by “and” are separate entries in the source; they are usually repeats but may differ in a detail not shown here. Equal values may be shown once.

Experiments:
Type in all cases: physicochemical
[1] = Absorption properties of the terbium and europium complexes in TRIS/HCl buffer; conditions: 0.01M TRIS/HCl buffer at pH = 7.0
Text: By way of example, all of the absorption and emission properties of the terbium and europium complexes synthesized from the ligands (I-1) to (I-4) in accordance with the invention are summarized in Table 1 below: […]

[2] = Emission properties: luminescence lifetime and quantum luminescence yield in water and D2O; conditions: for Emission τ (luminescence lifetime): error estimated ±5%; for Emission φ (quantum luminescence yield): error estimated ±15%
Text: Their optical luminescence properties, the luminescence lifetimes and the brightness properties are exceptional, with quantum yields of about 38% for Tb, 18% for Eu and lifetimes of the excited states of greater than 3 milliseconds for the Tb(I-3) and Tb(I-4) complexes.
By way of example, all of the absorption and emission properties of the terbium and europium complexes synthesized from the ligands (I-1) to (I-4) in accordance with the invention are summarized in Table 1 below:
The parameters φ and τ represent, respectively, the quantum luminescence yields and the luminescence lifetimes. They may be measured in water and in D2O.

[3] = Stability of terbium complexes (luminescence lifetime) in buffers with ligands capable of decomplexing the lanthanide ions; conditions: for stability: various aqueous media
Protocol: By way of example, the stability of the terbium complexes synthesized from the ligands (I-1) to (I-4) in accordance with the invention is given in Table 2 below. Various buffers in the presence of ligands capable of decomplexing the lanthanide ions were tested. For comparative purposes, Table 2 also gives the stability of a terbium complex TbL4 of the prior art corresponding to the following formula: […]

[4] = Tris 50 mM - Serum 50%, pH = 7.0
[5] = Tris 0.1M - EDTA 10 mM, pH = 7.0
[6] = Tris 0.1M - KF 400 mM, pH = 7.0

Compound | Absorption λabs [1] | Emission τ (luminescence lifetime) ([2]; D2O) | Emission φ (quantum luminescence yield) ([2]; D2O) | Emission τ (luminescence lifetime) ([2]; H2O) | Emission φ (quantum luminescence yield) ([2]; H2O) | τ ([3]; H2O, estimated error ±5%) | τ ([3]; Phosphate 0.1M, pH = 7.0) | τ [3, 4] | τ [3, 5] | τ [3, 6] | τ ([3]; Tris 0.1M, pH = 7.0) | stability [3]
CCOP(=O)([O-])CN(CC(=O)[O-])Cc1cc(C#Cc2ccc(C(=O)NCCCC(=O)[O-])c3ccccc23)cc(CN(CC(=O)[O-])CP(=O)([O-])OCC)n1.[Eu+3].[Na+].[Na+] [Eu(I-1)] | 266 nm and 349 nm | 2.4 ms | 24% | 1.5 ms | 16% | – | – | – | – | – | – | –
CCOP(=O)([O-])CN(CC(=O)[O-])Cc1cc(C#Cc2ccc(C#CCCCCC(=O)[O-])c3ccccc23)cc(CN(CC(=O)[O-])CP(=O)([O-])OCC)n1.[Eu+3].[Na+].[Na+] [Eu(I-2)] | 265 nm and 347 nm | 2.4 ms | 26% | 1.6 ms | 17% | – | – | – | – | – | – | –
CCOP(=O)([O-])CN(Cc1cc(C#Cc2ccc(C(=O)NCCCC(=O)[O-])c3ccccc23)cc(CN(CP(=O)([O-])OCC)CP(=O)([O-])OCC)n1)CP(=O)([O-])OCC.[Eu+3].[Na+].[Na+] [Eu(I-3)] | 270 nm and 352 nm | 2.5 ms | 22% | 1.7 ms | 18% | – | – | – | – | – | – | –
CCOP(=O)([O-])CN(Cc1cc(C#Cc2ccc(C#CCCCCC(=O)[O-])c3ccccc23)cc(CN(CP(=O)([O-])OCC)CP(=O)([O-])OCC)n1)CP(=O)([O-])OCC.[Eu+3].[Na+].[Na+] [Eu(I-4)] | 268 nm and 350 nm | 2.5 ms | 24% | 1.6 ms | 17% | – | – | – | – | – | – | –
CCOP(=O)([O-])CN(CC(=O)[O-])Cc1cc(C#Cc2ccc(C(=O)NCCCC(=O)[O-])c3ccccc23)cc(CN(CC(=O)[O-])CP(=O)([O-])OCC)n1.[Na+].[Na+].[Tb+3] [Tb(I-1)] | 268 nm and 348 nm | 3.1 ms | 46% | 2.8 ms | 35% | 2.8 ms | 2.7 ms | 2.6 ms | 2.6 ms | 2.6 ms | 2.7 ms | –
CCOP(=O)([O-])CN(CC(=O)[O-])Cc1cc(C#Cc2ccc(C#CCCCCC(=O)[O-])c3ccccc23)cc(CN(CC(=O)[O-])CP(=O)([O-])OCC)n1.[Na+].[Na+].[Tb+3] [Tb(I-2)] | 270 nm and 349 nm | 3.2 ms | 45% | 2.6 ms | 32% | 2.6 ms | 2.5 ms | 2.4 ms | 2.4 ms | 2.5 ms | 2.5 ms | –
CCOP(=O)([O-])CN(Cc1cc(C#Cc2ccc(C(=O)NCCCC(=O)[O-])c3ccccc23)cc(CN(CP(=O)([O-])OCC)CP(=O)([O-])OCC)n1)CP(=O)([O-])OCC.[Na+].[Na+].[Tb+3] [Tb(I-3)] | 272 nm and 353 nm | 3.4 ms | 42% | 3.1 ms | 38% | 3.1 ms | 2.9 ms | 3.0 ms | 3.0 ms | 2.9 ms | 3.0 ms | excellent stability
CCOP(=O)([O-])CN(Cc1cc(C#Cc2ccc(C#CCCCCC(=O)[O-])c3ccccc23)cc(CN(CP(=O)([O-])OCC)CP(=O)([O-])OCC)n1)CP(=O)([O-])OCC.[Na+].[Na+].[Tb+3] [Tb(I-4)] | 272 nm and 352 nm | 3.5 ms | 41% | 3.2 ms | 36% | 3.2 ms | 3.0 ms | 3.0 ms | 3.1 ms | 3.0 ms | 3.1 ms | excellent stability
